The values below come from patent publication US20230386615A1, “BINDING SITE IN TYPE 1 RYANODINE RECEPTOR” (The Trustees of Columbia University in the City of New York, priority 2021, published 2023).

Structures are written as SMILES.

In assay [1] the target is T1, RyR1-W996A (Oryctolagus cuniculus, UniProt P11716, W996A).
T1 construct: Each fragment was subcloned into a full length RyR1 construct in pcDNA3.1 vector; expressed in transfected cells; host or cells: HEK293 (also 293T/17) cells, pcDNA3.1
The assay is classed as binding, rabbit.

Assay [2] deals with T2, RyR1-W882A (Oryctolagus cuniculus, UniProt P11716, W882A). Particulars: radiolabeled ATP.
Assay [3] deals with HEK293 cells expressing mutant RyR1. The assay is described as follows: Ca2+ imaging, caffeine-induced Ca2+ release. The assay is classed as cell-based, rabbit. Particulars: both mutants, 1 mM H2O2, 10 mM caffeine.
In assay [4] the target is T3, RyR1-WT (Oryctolagus cuniculus, UniProt P11716).
T3 construct: Each fragment was subcloned into a full length RyR1 construct in pcDNA3.1 vector; expressed in transfected cells; host or cells: HEK293 (also 293T/17) cells, pcDNA3.1
The assay is classed as binding, rabbit.

Assay [5] has as its target T4, RyR1 (Oryctolagus cuniculus, UniProt P11716).
T4 construct: from tissue; host or cells: rabbit skeletal muscle sarcoplasmic reticulum microsomes
Briefly: S107 binding in the presence of increasing concentrations of ATP or ADP. More on the design: species or system rabbit.

Assay [6] has as its target T4, RyR1. Briefly: 3H-S107 radioligand binding, skeletal SR microsomes untreated or treated with PKA and H2O2. Also on record: species or system rabbit. As to the method: For PKA-phosphorylated channel experiments, […] of microsomes were in vitro phosphorylated with 40 units of PKA catalytic subunit (SigmaAldrich, Cat #P2645) for 30 min at 30° C. in the presence of the following buffer: 50 mM Tris/PIPES pH 7.0, 8 mM MgCl2, 1 mM MgATP, and 1 mM EGTA. The samples were then spun by centrifuge for 10 min at 100,000×g. The resulting pellets were washed four times with wash buffer (300 mM sucrose, 10 mM imidazole, pH 7.4) and aliquots were frozen in liquid nitrogen and stored at −80° C. Oxidation of RyR1 was induced by incubating microsomes with 1 mM H2O2 for 30 min at room temperature prior to washing.
Titrative ^3H-S107 binding, performed in the absence and presence of 10 mM NaATP, was initiated by addition of ^3H-S107 (10-10,000 nM final concentration) to 0.1 mg skeletal sarcoplasmic reticulum (SR) microsomes in binding buffer (50 mM Tris-HCl, pH 7.5, 150 mM NaCl, 25 mM MgCl2). […] All samples were incubated at room temperature for 30 min ^3H-S107 binding was stopped by addition of ice-cold binding buffer prior to filtration through GF/B Whatman filters pre-equilibrated with 0.015% PE. Filters were washed 3 times with 5 mL of wash buffer (10 mM MOPS, 200 mM NaCl, pH 7.4), dried, and counted. Data were normalized to ^3H-ryanodine binding. […].

The next assay addresses T5, purified RyR1 (Oryctolagus cuniculus, UniProt P11716).
T5 construct: RyR1 was purified from rabbit skeletal muscle; from tissue
The assay is described as follows: 3H-S107 binding to purified RyR1 in absence and presence of 10 mM ATP. Also on record: species or system rabbit.

The target in assay [7] is T3, RyR1-WT. The assay is described as follows: 3H-S107 binding, recombinant RyR1 HEK293 microsomes treated with PKA and H2O2. More on the design: species or system rabbit.
Assay [8] addresses T1, RyR1-W996A. Described as above. More on the design: species or system rabbit.
The target in assay [9] is T2, RyR1-W882A. Described as above. More on the design: Each fragment was subcloned into a full length RyR1 construct in pcDNA3.1 vector; expressed in transfected cells; host or cells: HEK293 (also 293T/17) cells, pcDNA3.1; species or system rabbit. Particulars: W882A mutation.
[10] abbreviates: first section of TABLE 5, 10 mM ATP added.
Setting [11] is: third section of TABLE 5, ADP in place of ATP.

As to `Nc1ncnc2c1ncn2[C@@H]1O[C@H](COP(=O)(O)OP(=O)(O)OP(=O)(O)O)[C@@H](O)[C@H]1O` [ATP, adenosine triphosphate], the “ATP binding, in words” value at RyR1-W996A [1] (W996A mutant) was “significantly reduced”; at RyR1-W882A [2], “maintained, although slightly reduced”.

In the case of `COc1ccc2c(c1)CN(Cc1ccc(C(=O)O)cc1)CCS2` [Compound 1, 4-[(7-methoxy-2,3-dihydro-1,4-benzothiazepin-4(5H)-yl)methyl]benzoic acid], in assay [3], the “caffeine-induced calcium release after oxidation” value is given as “unaffected”.

For the molecule `Nc1ncnc2c1ncn2[C@@H]1O[C@H](COP(=O)(O)OP(=O)(O)O)[C@@H](O)[C@H]1O` [ADP, adenosine diphosphate], the stoichiometry on RyR1-WT [4] was 12 molecules per channel. The “ADP binding stoichiometry, in words” value on RyR1-W996A [1] (RyR1-W996A) is “greater than one molecule per channel”. Besides, the “competition with S107 binding” value on RyR1 [5] is “significant inhibitory effect”.

With `COc1ccc2c(c1)CN(C)CCS2` [Compound S107], the Bmax was found to be 3.7 ± 0.2 mol S107/mol RyR1 on RyR1 [6] (PKA/H2O2 treated microsomes); 0.4 ± 0.1 mol S107/mol RyR1 at RyR1 [6] (Untreated microsomes); 3.0 ± 0.2 mol S107/mol RyR1 on purified RyR1 (10 mM ATP); 0.4 ± 1.0 mol S107/mol RyR1 on purified RyR1 (No ATP); 3.5 ± 0.3 mol S107/mol RyR1 at RyR1-WT [7] (setting [10]); 3.6 ± 0.3 mol S107/mol RyR1 at RyR1-WT [7] (setting [11]). In addition, the Bmax at RyR1-W996A [8] (RyR1-W996A, third section of TABLE 5, ADP in place of ATP) turned out to be 2.0 ± 0.2 mol S107/mol RyR1. The Kd – broadly, the equilibrium constant for the complex coming apart – on RyR1 [6] (PKA/H2O2 treated microsomes) was determined as 155 ± 9 nM; at RyR1 [6] (Untreated microsomes), 150 ± 7 nM; at purified RyR1 (10 mM ATP) it was 152 ± 7 nM; at purified RyR1 (No ATP) it was 147 ± 6 nM; at RyR1-WT [7] (setting [10]) it was 200 ± 11 nM; on RyR1-WT [7] (setting [11]), 188 ± 12 nM. Moreover, on RyR1-W996A [8], the Kd turned out to be 250 ± 10 nM. The “3H-S107 binding to the channel, in words” value on RyR1-W882A [9] was “abolished”.
